In ChEMBL document CHEMBL1135028, “Enantio-dependent binding and transactivation of optically active phenylpropanoic acid derivatives at human peroxisome proliferator-activated receptor alpha” (Bioorg Med Chem Lett, 2002):

Columns and labels:
[1] = target: T1, Peroxisome proliferator-activated receptor alpha (Homo sapiens, UniProt Q07869); experiment: Compound was tested for half maximum transactivation activity of human peroxisome proliferator-activated receptor alpha; assay type: functional
T1 sequence (Q07869 whole entry): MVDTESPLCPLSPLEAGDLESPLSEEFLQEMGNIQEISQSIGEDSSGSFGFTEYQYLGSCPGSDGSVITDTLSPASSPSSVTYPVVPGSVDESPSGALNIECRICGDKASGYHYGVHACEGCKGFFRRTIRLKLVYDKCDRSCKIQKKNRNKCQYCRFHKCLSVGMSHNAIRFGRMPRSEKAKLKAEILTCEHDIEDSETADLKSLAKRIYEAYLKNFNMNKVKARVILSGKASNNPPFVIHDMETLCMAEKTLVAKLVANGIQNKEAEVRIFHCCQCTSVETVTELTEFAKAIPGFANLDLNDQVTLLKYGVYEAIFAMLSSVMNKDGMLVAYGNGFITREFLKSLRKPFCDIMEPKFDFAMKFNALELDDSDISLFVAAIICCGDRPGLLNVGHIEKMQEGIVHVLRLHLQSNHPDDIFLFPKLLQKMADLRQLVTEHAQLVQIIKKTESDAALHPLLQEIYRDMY

[2] = target: T1, Peroxisome proliferator-activated receptor alpha; experiment: Binding affinity of compound to human peroxisome proliferator-activated receptor alpha was determined by competitive binding assay

EC50 [1]	EC50 [2]	SMILES
1500 nM	24000 nM	CC[C@H](Cc1ccc(OC)c(C(=O)NCc2ccc(C(F)(F)F)cc2)c1)C(=O)O
	740 nM	CC[C@@H](Cc1ccc(OC)c(C(=O)NCc2ccc(C(F)(F)F)cc2)c1)C(=O)O
